Data: US20240366639A1, “HETEROCYCLIC GLP-1 AGONISTS” (GASHERBRUM BIO, INC., priority 2021, published 2024)
Like-named read-outs stand apart in the source and are kept apart here.

Target: T1, GLP-1 Receptor (GLP1R) (Homo sapiens, UniProt P43220)
T1 construct: host or cells: HEK293/GLP1R/CRE-LUC
Assay: GLP-1R agonist cAMP stimulation assay (Method 3)
Format: cell-based
Conditions: HEK293/GLP1R/CRE-LUC cells (HDB), Method 3, 30 min incubation
Outline: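 HEK293 CRE-Luc cells stably expressing GLP-1R (1000 cells/well) were exposed to ½-log serially diluted compound in DPBS with 0.5 mM IBMX and 0.1% BSA for 30 min at 37 °C. cAMP was quantified by HTRF (cAMP-d2/anti-cAMP cryptate), 1 h at room temperature, read at 665/615 nm.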

[1] = read-out: GLP1R cAMP Stimulation DR: EC50 (nM) [Species: Human, Assay Cell Line: HDB]
[2] = read-out: GLP1R cAMP Stimulation DR: pEC50 (M) [Species: Human, Assay Cell Line: HDB] (converted)

T1 sequence (P43220 24-463): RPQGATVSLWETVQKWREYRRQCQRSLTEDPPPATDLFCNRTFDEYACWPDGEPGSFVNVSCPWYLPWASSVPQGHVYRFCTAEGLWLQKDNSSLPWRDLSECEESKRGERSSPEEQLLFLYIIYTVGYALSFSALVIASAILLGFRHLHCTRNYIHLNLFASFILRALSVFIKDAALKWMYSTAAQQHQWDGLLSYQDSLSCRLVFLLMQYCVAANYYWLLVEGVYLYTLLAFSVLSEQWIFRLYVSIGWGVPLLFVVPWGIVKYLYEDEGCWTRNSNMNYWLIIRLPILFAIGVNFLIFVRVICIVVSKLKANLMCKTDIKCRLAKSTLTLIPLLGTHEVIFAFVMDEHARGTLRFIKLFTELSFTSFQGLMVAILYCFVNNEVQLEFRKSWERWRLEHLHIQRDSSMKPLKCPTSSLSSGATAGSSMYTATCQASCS

| Compound | EC50 [1] [nM] | EC50 [2] [nM] |
| --- | --- | --- |
| CCP(=O)(CC)c1ccc(-n2ccn(-c3c4c(nn3-c3cc(C)c(F)c(C)c3)CCN(C(=O)c3cc5cc(C6CCOCC6)ccc5n3[C@@]3(c5noc(=O)[nH]5)C[C@@H]3C)[C@H]4C)c2=O)cc1N [Compound 138a, 3-((1S,2S)-1-(2-((S)-3-(3-(3-amino-4-(diethylphosphoryl)phenyl)-2-oxo-2,3-dihydro-1H-imidazol-1-yl)-2-(4-fluoro-3,5-dimethylphenyl)-4-methyl-4,5,6,7-tetrahydro-2H-pyrazolo[4,3-c]pyridine-5-carbonyl)-5-(tetrahydro-2H-pyran-4-yl)-1H-indol-1-yl)-2-methylcyclopropyl)-1,2,4-oxadiazol-5(4H)-one] | < 0.1 | ≤ 0.1 |
| CNc1cc(-n2ccn(-c3c4c(nn3-c3cc(C)c(F)c(C)c3)CCN(C(=O)c3cc5cc(C6CCOCC6)ccc5n3[C@@]3(c5noc(=O)[nH]5)C[C@@H]3C)[C@H]4C)c2=O)ccc1P(=O)(C(C)C)C(C)C [Compound 141a, 3-((1S,2S)-1-(2-((S)-3-(3-(4-(diisopropylphosphoryl)-3-(methylamino)phenyl)-2-oxo-2,3-dihydro-1H-imidazol-1-yl)-2-(4-fluoro-3,5-dimethylphenyl)-4-methyl-4,5,6,7-tetrahydro-2H-pyrazolo[4,3-c]pyridine-5-carbonyl)-5-(tetrahydro-2H-pyran-4-yl)-1H-indol-1-yl)-2-methylcyclopropyl)-1,2,4-oxadiazol-5(4H)-one] | < 0.1 | ≤ 0.1 |
| CCP(=O)(CC)c1ccc(-n2ccn(-c3c4c(nn3-c3cc(C)c(F)c(C)c3)CCN(C(=O)c3cc5cc([C@@H]6CCOC(C)(C)C6)ccc5n3[C@@]3(c5noc(=O)[nH]5)C[C@@H]3C)[C@H]4C)c2=O)cc1NC [Compound 146a, 3-((1S,2S)-1-(2-((S)-3-(3-(4-(diethylphosphoryl)-3-(methylamino)phenyl)-2-oxo-2,3-dihydro-1H-imidazol-1-yl)-2-(4-fluoro-3,5-dimethylphenyl)-4-methyl-4,5,6,7-tetrahydro-2H-pyrazolo[4,3-c]pyridine-5-carbonyl)-5-((R)-2,2-dimethyltetrahydro-2H-pyran-4-yl)-1H-indol-1-yl)-2-methylcyclopropyl)-1,2,4-oxadiazol-5(4H)-one] | < 0.1 | ≤ 0.1 |
| CCP(=O)(CC)c1ccc(-n2ccn(-c3c4c(nn3-c3cc(C)c(F)c(C)c3)CCN(C(=O)c3cc5cc([C@H]6CCOC(C)(C)C6)ccc5n3[C@@]3(c5noc(=O)[nH]5)C[C@@H]3C)[C@H]4C)c2=O)cc1NC [Compound 146b, 3-((1S,2S)-1-(2-((S)-3-(3-(4-(diethylphosphoryl)-3-(methylamino)phenyl)-2-oxo-2,3-dihydro-1H-imidazol-1-yl)-2-(4-fluoro-3,5-dimethylphenyl)-4-methyl-4,5,6,7-tetrahydro-2H-pyrazolo[4,3-c]pyridine-5-carbonyl)-5-((S)-2,2-dimethyltetrahydro-2H-pyran-4-yl)-1H-indol-1-yl)-2-methylcyclopropyl)-1,2,4-oxadiazol-5(4H)-one] | < 0.1 | ≤ 0.1 |
| Cc1cc(-n2nc3c(c2-n2ccn(Cc4cccc(P(C)(C)=O)c4)c2=O)[C@H](C)N(C(=O)c2cc4cc(C5CCOCC5)ccc4n2[C@@]2(c4noc(=O)[nH]4)C[C@@H]2C)CC3)cc(C)c1F [Compound 147a, 3-((1S,2S)-1-(2-((S)-3-(3-(3-(dimethylphosphoryl)benzyl)-2-oxo-2,3-dihydro-1H-imidazol-1-yl)-2-(4-fluoro-3,5-dimethylphenyl)-4-methyl-4,5,6,7-tetrahydro-2H-pyrazolo[4,3-c]pyridine-5-carbonyl)-5-(tetrahydro-2H-pyran-4-yl)-1H-indol-1-yl)-2-methylcyclopropyl)-1,2,4-oxadiazol-5(4H)-one] | 0.5 to 5 | 1 to 10 |

Second part, the compound after the results:

| EC50 [1] [nM] | EC50 [2] [nM] | Compound |
| --- | --- | --- |
| < 0.1 | ≤ 0.1 | CCP(=O)(CC)c1ncc(-n2ccn(-c3c4c(nn3-c3cc(C)c(F)c(C)c3)CCN(C(=O)c3cc5cc(C6CCOCC6)ccc5n3[C@@]3(c5noc(=O)[nH]5)C[C@@H]3C)[C@H]4C)c2=O)cc1NC [Compound 139a, 3-((1S,2S)-1-(2-((S)-3-(3-(6-(diethylphosphoryl)-5-(methylamino)pyridin-3-yl)-2-oxo-2,3-dihydro-1H-imidazol-1-yl)-2-(4-fluoro-3,5-dimethylphenyl)-4-methyl-4,5,6,7-tetrahydro-2H-pyrazolo[4,3-c]pyridine-5-carbonyl)-5-(tetrahydro-2H-pyran-4-yl)-1H-indol-1-yl)-2-methylcyclopropyl)-1,2,4-oxadiazol-5(4H)-one] |
| 0.5 to 5 | 0.1 to 1 | CCP(=O)(CC)c1c(C)cc(-n2ccn(-c3c4c(nn3-c3cc(C)c(F)c(C)c3)CCN(C(=O)c3cc5cc(C6CCOCC6)ccc5n3[C@@]3(c5noc(=O)[nH]5)C[C@@H]3C)[C@H]4C)c2=O)cc1NC [Compound 140a, 3-((1S,2S)-1-(2-((S)-3-(3-(4-(diethylphosphoryl)-3-methyl-5-(methylamino)phenyl)-2-oxo-2,3-dihydro-1H-imidazol-1-yl)-2-(4-fluoro-3,5-dimethylphenyl)-4-methyl-4,5,6,7-tetrahydro-2H-pyrazolo[4,3-c]pyridine-5-carbonyl)-5-(tetrahydro-2H-pyran-4-yl)-1H-indol-1-yl)-2-methylcyclopropyl)-1,2,4-oxadiazol-5(4H)-one] |
| 0.1 to 0.2 | 0.1 to 1 | CCP(=O)(CC)c1c(F)cc(-n2ccn(-c3c4c(nn3-c3cc(C)c(F)c(C)c3)CCN(C(=O)c3cc5cc(C6CCOCC6)ccc5n3[C@@]3(c5noc(=O)[nH]5)C[C@@H]3C)[C@H]4C)c2=O)cc1NC [Compound 143a, 3-((1S,2S)-1-(2-((S)-3-(3-(4-(diethylphosphoryl)-3-fluoro-5-(methylamino)phenyl)-2-oxo-2,3-dihydro-1H-imidazol-1-yl)-2-(4-fluoro-3,5-dimethylphenyl)-4-methyl-4,5,6,7-tetrahydro-2H-pyrazolo[4,3-c]pyridine-5-carbonyl)-5-(tetrahydro-2H-pyran-4-yl)-1H-indol-1-yl)-2-methylcyclopropyl)-1,2,4-oxadiazol-5(4H)-one] |
| < 0.1 | ≤ 0.1 | CCP(=O)(CC)c1cc(F)c(-n2ccn(-c3c4c(nn3-c3cc(C)c(F)c(C)c3)CCN(C(=O)c3cc5cc(C6CCOCC6)ccc5n3[C@@]3(c5noc(=O)[nH]5)C[C@@H]3C)[C@H]4C)c2=O)cc1NC [Compound 144a, 3-((1S,2S)-1-(2-((S)-3-(3-(4-(diethylphosphoryl)-2-fluoro-5-(methylamino)phenyl)-2-oxo-2,3-dihydro-1H-imidazol-1-yl)-2-(4-fluoro-3,5-dimethylphenyl)-4-methyl-4,5,6,7-tetrahydro-2H-pyrazolo[4,3-c]pyridine-5-carbonyl)-5-(tetrahydro-2H-pyran-4-yl)-1H-indol-1-yl)-2-methylcyclopropyl)-1,2,4-oxadiazol-5(4H)-one] |
| < 0.1 | ≤ 0.1 | CCP(=O)(CC)c1ccc(-n2ccn(-c3c4c(nn3-c3cc(C)c(F)c(C)c3)CCN(C(=O)c3cc5cc(C6CCOCC6)ccc5n3[C@@]3(c5noc(=O)[nH]5)C[C@@H]3C)[C@H]4C)c2=O)c(F)c1NC [Compound 145a, 3-((1S,2S)-1-(2-((S)-3-(3-(4-(diethylphosphoryl)-2-fluoro-3-(methylamino)phenyl)-2-oxo-2,3-dihydro-1H-imidazol-1-yl)-2-(4-fluoro-3,5-dimethylphenyl)-4-methyl-4,5,6,7-tetrahydro-2H-pyrazolo[4,3-c]pyridine-5-carbonyl)-5-(tetrahydro-2H-pyran-4-yl)-1H-indol-1-yl)-2-methylcyclopropyl)-1,2,4-oxadiazol-5(4H)-one] |
